Target: Xanthine dehydrogenase/oxidase (Bos taurus, UniProt P80457)
Assay: Compound is evaluated for competitive inhibition against xanthine oxidase from cow's milk

Xanthine dehydrogenase/oxidase, sequence (P80457 whole entry): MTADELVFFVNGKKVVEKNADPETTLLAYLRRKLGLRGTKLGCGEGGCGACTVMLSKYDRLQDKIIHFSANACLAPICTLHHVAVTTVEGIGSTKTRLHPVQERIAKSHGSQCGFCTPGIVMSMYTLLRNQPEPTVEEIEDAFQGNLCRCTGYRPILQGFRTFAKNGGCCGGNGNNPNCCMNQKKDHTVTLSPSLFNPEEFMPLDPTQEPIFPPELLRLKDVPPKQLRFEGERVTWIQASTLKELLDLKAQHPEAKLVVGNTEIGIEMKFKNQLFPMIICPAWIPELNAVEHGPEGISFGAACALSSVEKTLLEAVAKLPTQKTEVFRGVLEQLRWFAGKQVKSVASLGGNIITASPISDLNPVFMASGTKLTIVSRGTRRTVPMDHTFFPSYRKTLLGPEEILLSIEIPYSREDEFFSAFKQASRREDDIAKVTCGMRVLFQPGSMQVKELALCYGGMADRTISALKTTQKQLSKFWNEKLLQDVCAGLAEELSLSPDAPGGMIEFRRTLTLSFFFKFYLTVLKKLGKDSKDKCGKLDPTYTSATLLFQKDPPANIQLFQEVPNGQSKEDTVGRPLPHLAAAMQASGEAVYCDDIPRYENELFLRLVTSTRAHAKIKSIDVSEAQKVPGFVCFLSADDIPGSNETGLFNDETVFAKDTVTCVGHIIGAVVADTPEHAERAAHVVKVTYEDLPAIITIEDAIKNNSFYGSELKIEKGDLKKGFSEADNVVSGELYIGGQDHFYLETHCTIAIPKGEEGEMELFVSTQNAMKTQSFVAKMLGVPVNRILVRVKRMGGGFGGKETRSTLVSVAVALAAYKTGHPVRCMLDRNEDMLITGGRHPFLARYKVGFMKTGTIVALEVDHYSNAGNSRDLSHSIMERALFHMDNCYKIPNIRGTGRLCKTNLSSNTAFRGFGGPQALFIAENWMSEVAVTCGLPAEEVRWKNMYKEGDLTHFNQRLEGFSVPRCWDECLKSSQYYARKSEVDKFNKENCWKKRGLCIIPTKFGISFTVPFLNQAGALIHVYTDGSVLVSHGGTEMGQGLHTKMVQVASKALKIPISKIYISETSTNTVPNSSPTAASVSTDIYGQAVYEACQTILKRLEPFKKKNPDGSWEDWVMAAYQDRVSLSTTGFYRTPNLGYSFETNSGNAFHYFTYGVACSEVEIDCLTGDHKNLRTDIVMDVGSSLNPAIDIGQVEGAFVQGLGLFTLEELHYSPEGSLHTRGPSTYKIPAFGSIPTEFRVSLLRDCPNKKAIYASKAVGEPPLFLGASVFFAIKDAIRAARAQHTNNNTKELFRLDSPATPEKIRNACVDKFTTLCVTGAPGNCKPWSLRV

Nc1nc2c(c(=O)[nH]1)CC=N2 [7-DEAZAGUANINE]
Ki: 3 µM

Cn1ccc2c(=O)[nH]c(N)nc21
Ki: 3 µM

Cn1c(N)nc2nccc-2c1O
Ki: 40 µM

Cn1c(N)nc(O)c2ccnc1-2
Ki: 4.5 µM

— ChEMBL document CHEMBL1122713, “Isomeric N-methyl-7-deazaguanines: synthesis, structural assignment, and inhibitory activity on xanthine oxidase” (J Med Chem, 1984)
